# Assay results reported in US5482967A, “Condensed heterocyclic compounds, their production and use” (Takeda Chemical Industries, Ltd., priority 1992, dated 1996).
# Where a name gives a salt, the structure may show the parent alone.
# Target: substance P receptor (Homo sapiens, UniProt P25103)
# Assay: Radioligand receptor binding inhibitory assay using receptor from human lymphoblast cells (IM-9), 125I-BHSP
# Conditions: IM-9 receptor, 25° C., 30 minutes
# Description: The method of A. Margaret et al. [Molecular Pharmacology 42, 458 (1992)] was modified and used. The receptor was prepared from human lymphoblast cells (IM-9). IM-9 cells were grown in 175 cm^2 tissue culture flasks (100 ml×10) at a density approximately 2×10^5 /ml of RPMI 1640 with L-glutamine, 10% (V/V) heat inactivated fetal calf serum, penicillin (100 u/ml), and streptomycin (100 μg/ml) at 37° C. in 5% CO2 /95% air for 3 days. IM-9 cells were obtained by centrifugation at 500×g for 5 minutes at 5° C. The pellet obtained was washed once with phosphate buffer (Flow Laboratories, CAT No. 28-103-05), homogenized using Polytron homogenizer (Kinematika, Germany) in 30 ml of 50 mM Tris-HCl buffer containing 120 mM NaCl, 5 mM KCl, 2 μg/ml phenylmethyl sulfonyl fluoride, and 1 mM ethylenediamine tetra-acetic acid and then centrifuged at 40,000×g for 20 minutes. The residue was washed twice with 30 ml of buffer described above, and preserved frozen (-80° C.).
# The above specimen was suspended in a reaction buffer (50 mM Tris-HCl buffer (pH 7.4), 0.02% bovine serum albumin, 1 mM phenylmethylsulfonyl fluoride, 2 μg/ml chymostatin, 40 μg/ml bacitracin, 3 mM manganese chloride) at a protein concentration of 1.5 mg/ml and a 100 μl portion of the suspension was used in the reaction. After addition of the sample and 125I-BHSP (0.46 KBq), the reaction was conducted in 0.2 ml of reaction buffer at 25° C. for 30 minutes. The amount of nonspecific binding was determined by adding substance P at a final concentration of 2×10^-6 M. After the reaction, using a cell harvester (290PHD, Cambridge Technology, Inc., England), rapid filtration was carried out through a glass filter (GF/B, Whatman, U.S.A.) to stop the reaction. After washing three times with 250 μl of 50 mM Tris-HCl buffer (pH 7.4) containing 0.02% bovine serum albumin, the radioactivity remaining on the filter was measured with a gamma counter. Before use, the filter was immersed in 0.1% polyethyleneimine for 24 hours and air-dried.
# Sequence of substance P receptor (P25103 whole entry): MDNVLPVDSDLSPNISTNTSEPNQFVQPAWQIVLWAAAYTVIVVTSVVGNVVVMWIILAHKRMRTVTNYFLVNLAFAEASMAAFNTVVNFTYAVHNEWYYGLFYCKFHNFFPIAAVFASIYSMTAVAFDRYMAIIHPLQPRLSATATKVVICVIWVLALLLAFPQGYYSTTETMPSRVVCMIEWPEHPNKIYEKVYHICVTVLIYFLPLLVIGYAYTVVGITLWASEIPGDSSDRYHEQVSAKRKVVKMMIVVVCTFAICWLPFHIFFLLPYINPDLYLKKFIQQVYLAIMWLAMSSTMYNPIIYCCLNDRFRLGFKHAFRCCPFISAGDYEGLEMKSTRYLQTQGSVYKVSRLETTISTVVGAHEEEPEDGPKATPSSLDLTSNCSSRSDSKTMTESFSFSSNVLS
row,SMILES,IC50 [nM]
1,"CN(Cc1cc(C(F)(F)F)cc(C(F)(F)F)c1)C(=O)c1c(-c2ccccc2)c2ccccc2c(=O)n1CC[N+](C)(C)C [Example 282, N-[3,5-Bis(trifluoromethyl)benzyl]-1,2-dihydro-N-methyl-1-oxo-4-phenyl-2-[2-(N,N,N-trimethylammonium)ethyl]-3-isoquinolinecarboxamide]",22
2,"Cn1c(C(=O)NCc2cc(C(F)(F)F)cc(C(F)(F)F)c2)c(-c2ccccc2)c2c(c1=O)CCCC2 [Example 185, N-[3,5-Bis(trifluoromethyl)benzyl]-1,2,5,6,7,8-hexahydro-2-methyl-1-oxo-4-phenyl-3-isoquinolinecarboxamide]",32
3,"COc1ccccc1CN(C)C(=O)c1c(-c2ccccc2)c2cc(C)c(C)cc2c(=O)n1C [Example 111, 1,2-Dihydro-N-(2-methoxybenzyl)-N,2,6,7-tetramethyl-1-oxo-4-phenyl-3-isoquinolinecarboxamide]",98
4,"COc1ccccc1-c1c(C(=O)N(C)Cc2cc(C(F)(F)F)cc(C(F)(F)F)c2)oc(=O)c2ccccc12 [Example 244, N-[3,5-Bis(trifluoromethyl)benzyl]-4-(2-methoxyphenyl)-N-methyl-1-oxo-1H-2-benzopyran-3-carboxamide]",1.6
5,"Cc1cccc(C)c1-c1c(C(=O)N(C)Cc2cc(C(F)(F)F)cc(C(F)(F)F)c2)n(C)c(=O)c2ccccc12 [Example 123, N-[3,5-Bis(trifluoromethyl)benzyl]-1,2-dihydro-4-(2,6-dimethylphenyl)-N,2-dimethyl-1-oxo-3-isoquinolinecarboxamide]",46
6,"Cn1c(C(=O)NCc2cc(C(F)(F)F)cc(C(F)(F)F)c2)c(-c2ccc(F)cc2)c2ccccc2c1=O [Example 165, N-[3,5-Bis(trifluoromethyl)benzyl]-4-(4-fluorophenyl)-1,2-dihydro-2-methyl-1-oxo-3-isoquinolinecarboxamide]",24
7,"CN(Cc1cc(C(F)(F)F)cc(C(F)(F)F)c1)C(=O)c1c(-c2ccccc2)c2ccccc2oc1=O [Example 250, N-[3,5-Bis(trifluoromethyl)benzyl]-N-methyl-2-oxo-4-phenyl-2H-1-benzopyran-3-carboxamide]",0.9
8,"Cn1c(=O)c(C(=O)NCc2cc(C(F)(F)F)cc(C(F)(F)F)c2)c(-c2ccccc2Cl)c2ccccc21 [Example 261, N-[3,5-Bis(trifluoromethyl)benzyl]-4-(2-chlorophenyl)-1,2-dihydro-1-methyl-2-oxo-3-quinolinecarboxamide]",63
9,"Cc1ccccc1-c1c(C(=O)N(C)Cc2ccccc2)n(C)c(=O)c2ccccc12 [Example 103, N-Benzyl-1,2-dihydro-N,2-dimethyl-4-(2-methylphenyl)-1-oxo-3-isoquinolinecarboxamide]",34
10,"CN(Cc1cc(C(F)(F)F)cc(C(F)(F)F)c1)C(=O)c1c(-c2ccccc2C(F)(F)F)c2ccccc2c(=O)n1C [Example 182, N-[3,5-Bis(trifluoromethyl)benzyl]-1,2-dihydro-N,2-dimethyl-1-oxo-4-(2-trifluoromethylphenyl)-3-isoquinolinecarboxamide]",2
11,"CN(C)CCn1c(C(=O)N(C)Cc2cc(C(F)(F)F)cc(C(F)(F)F)c2)c(-c2ccccc2)c2ccccc2c1=O [Example 184, N-[3,5-Bis(trifluoromethyl)benzyl]-2-[2-(N,N-dimethylamino)ethyl]-1,2-dihydro-N-methyl-1-oxo-4-phenyl-3-isoquinolinecarboxamide hydrochloride]",17
12,"CN(Cc1cc(C(F)(F)F)cc(C(F)(F)F)c1)C(=O)c1cnc2ccccc2c1-c1ccccc1 [Example 265, N-[3,5-Bis(trifluoromethyl)benzyl]-N-methyl-4-phenyl-3-quinolinecarboxamide]",0.52
13,"CN(Cc1cc(C(F)(F)F)cc(C(F)(F)F)c1)C(=O)[C@@H]1OC(=O)c2ccccc2[C@@H]1c1ccccc1 (relative stereo) [Example 281, 3,4-cis-N-[3,5-Bis(trifluoromethyl)benzyl]-3,4-dihydro-N-methyl-1-oxo-4-phenyl-1H-2-benzopyran-3-carboxamide]",36
14,"Cc1cc(C)cc(CN(C)C(=O)c2c(-c3ccccc3C)c3ccccc3c(=O)n2C)c1 [Example 106, 1,2-Dihydro-N-(3,5-dimethylbenzyl)-N,2-dimethyl-4-(2-methylphenyl)-1-oxo-3-isoquinolinecarboxamide]",30
15,Cc1ccccc1-c1c(C(=O)N(C)Cc2cc(C(F)(F)F)cc(C(F)(F)F)c2)c(=O)oc2ccc(Cl)cc12 [Example 248],16
16,"Cc1cc2c(-c3ccccc3)c(C(=O)NCc3cc(C(F)(F)F)cc(C(F)(F)F)c3)n(CC(N)=O)c(=O)c2cc1C [Example 225, N-[3,5-Bis(trifluoromethyl)benzyl]-2-carbamoylmethyl-1,2-dihydro-6,7-dimethyl-1-oxo-4-phenyl-3-isoquinolinecarboxamide]",94
17,"Cc1ccccc1-c1c(C[S+]([O-])Cc2cc(C(F)(F)F)cc(C(F)(F)F)c2)n(C)c(=O)c2ccccc12 (centres unmarked) [Example 218, 3,5-Bis(trifluoromethyl)benzyl 1,2-dihydro-2-methyl-4-(2-methylphenyl)-1-oxo-3-isoquinolinemethyl sulfoxide]",23
18,"COc1nc2ccccc2c(-c2ccccc2)c1C(=O)N(C)Cc1cc(C(F)(F)F)cc(C(F)(F)F)c1 [Example 270, N-[3,5-Bis(trifluoromethyl)benzyl]-2-methoxy-N-methyl-4-phenyl-3-quinolinecarboxamide]",10
19,"CN(Cc1cc(C(F)(F)F)cc(C(F)(F)F)c1)C(=O)c1[nH]c(=O)c2ccccc2c1-c1ccc(F)cc1 [Example 178, N-[3,5-Bis(trifluoromethyl)benzyl]-4-(4-fluorophenyl)-1,2-dihydro-N-methyl-1-oxo-3-isoquinolinecarboxamide]",0.14
20,"Cc1cc2c(-c3ccccc3)c(C(=O)NCc3cccc(Cl)c3)n(C)c(=O)c2cc1C [Example 130, N-(3-Chlorobenzyl)-1,2-dihydro-2,6,7-trimethyl-1-oxo-4-phenyl-3-isoquinolinecarboxamide]",38
21,"COc1ccccc1CN(C)C(=O)c1c(-c2ccccc2C)c2ccccc2c(=O)n1C [Example 104, 1,2-Dihydro-N-(2-methoxybenzyl)-N,2-dimethyl-4-(2-methylphenyl)-1-oxo-3-isoquinolinecarboxamide]",16
22,"CN(Cc1cc(C(F)(F)F)cc(C(F)(F)F)c1)C(=O)c1nc(Cl)c2ccccc2c1-c1ccc(F)cc1 [Example 273, N-[3,5-Bis(trifluoromethyl)benzyl]-1-chloro-4-(4-fluorophenyl)-N-methyl-3-isoquinolinecarboxamide]",2
23,"COc1ccc(CNC(=O)c2c(-c3ccccc3)c3cc(C)c(C)cc3c(=O)n2C)cc1 [Example 109, 1,2-Dihydro-N-(4-methoxybenzyl)-2,6,7-trimethyl-1-oxo-4-phenyl-3-isoquinolinecarboxamide]",50
24,"CN(Cc1cc(C(F)(F)F)cc(C(F)(F)F)c1)C(=O)c1oc(=O)c2ccc(Cl)cc2c1-c1ccccc1 [Example 242, N-[3,5-Bis(trifluoromethyl)benzyl]-6-chloro-N-methyl-1-oxo-4-phenyl-1H-2-benzopyran-3-carboxamide]",8.6
25,"COc1ccccc1CNC(=O)c1c(-c2ccccc2)c2cc(C)c(C)cc2c(=O)n1C [Example 110, 1,2-Dihydro-N-(2-methoxybenzyl)-2,6,7-trimethyl-1-oxo-4-phenyl-3-isoquinolinecarboxamide]",90
26,"Cc1cc2c(-c3ccccc3)c(CC(=O)N(C)Cc3ccccc3Cl)n(C)c(=O)c2cc1C [Example 221, N-(2-Chlorobenzyl)-1,2-dihydro-N,2,6,7-tetramethyl-1-oxo-4-phenyl-3-isoquinolineacetamide]",130
27,"CCN(Cc1cc(C(F)(F)F)cc(C(F)(F)F)c1)C(=O)c1c(-c2ccccc2)c2ccccc2c(=O)n1C [Example 187, N-[3,5-Bis(trifluoromethyl)benzyl]-1,2-dihydro-N-ethyl-2-methyl-1-oxo-4-phenyl-3-isoquinolinecarboxamide]",1.4
28,"Cc1cc(F)ccc1-c1c(C(=O)NCc2cc(C(F)(F)F)cc(C(F)(F)F)c2)n(C)c(=O)c2ccccc12 [Example 175, N-[3,5-Bis(trifluoromethyl)benzyl]-4-(4-fluoro-2-methylphenyl)-1,2-dihydro-2-methyl-1-oxo-3-isoquinolinecarboxamide]",6.2
29,"O=C1c2c(-c3ccccc3)c3ccccc3c(=O)n2CCN1Cc1cc(C(F)(F)F)cc(C(F)(F)F)c1 [Example 240, N-[3,5-Bis(trifluoromethyl)benzyl]-1,2,3,4-tetrahydro-1,6-dioxo-11-phenyl-6H-pyrazino[1,2-b]isoquinoline]",2
